Measured values reported in patent US20100144722A1, “NOVEL HETEROCYCLIC COMPOUNDS AS GATA MODULATORS” (Dr. Reddy's Laboratories Ltd., priority 2008, published 2010).

Tested on: GATA1
Assay: GATA Assay (GATA luciferase reporter in transfected HepG2 cells)
Format: cell-based, Human
Conditions: HepG2 cells transfected with GATA Translucent Reporter Vector, luciferase normalized to total protein
Experimental: Human HepG2 (ATCC) cells were grown in Eagle's Minimum Essential Media (MEM) containing 10% heat inactivated Fetal Bovine Serum (FBS) (Invitrogen) and 5 mL Penicillin-Streptomycin (Invitrogen) in T75 flasks (Corning) in a 37° C./5% CO2 tissue culture incubator (Thermo Electron Corporation) prior to the study. 96-well plates (Corning) were seeded in MEM containing 10% FBS to yield ˜50% confluency. The following day, cells were transfected using FuGENE 6 transfection reagent (Roche) and […] GATA Translucent Reporter Vector (Panomics) according the manufacturer's (Roche) protocol and incubated for about 10-19 h. The next day, the cells were treated with equal volumes of vehicle, dimethyl sulfoxide (DMSO) (Hybri-Max Sterile Filtered Sigma Aldrich) or compounds of formula (I) (in DMSO) diluted in MEM containing 1% FBS. The treated cells were incubated about 8-19 h. The next day the treatment media was removed and the cells were lysed and assayed for luciferase activity using the luciferase assay system (Promega) and using the Envision plate reader (Perkin Elmer). The lysates were also used to measure total protein content with the MicroBCA protein assay kit (Pierce) using the Multiskan Ascent plate reader at 570 nm. Luciferase values were normalized to total protein and fold induction was calculated.
Compounds that show an increase of ≧40% in luciferase levels at ≦20 μm concentration were considered as GATA activators.

| SMILES | GATA1 Activation (Fold Change Vs Control) (5μ compound) [Fold] | GATA1 Activation (Fold Change Vs Control) (10μ compound) [Fold] |
| --- | --- | --- |
| O=C(O)C1(c2ccc(Nc3nc(NC4CCCC4)cc(-c4ccccc4)n3)cc2)CCC1 [Example 16, 1-[4-(4-cyclopentylamino-6-phenyl-pyrimidin-2-ylamino)-phenyl]-cyclobutane-carboxylic acid] | 2.44 | 2.13 |
| O=C(O)C1(c2ccc(Nc3nc(NC4CCCC4)cc(C4CCCC4)n3)cc2)CCC1 [Example 25, 1-[4-(4-cyclopentyl-6-cyclopentylamino-pyrimidin-2-ylamino)-phenyl]-cyclobutanecarboxylic acid] | 3.69 | 3.32 |
| Cc1noc(C)c1-c1cc(N2CCOCC2)nc(Nc2ccc(C3(C(=O)O)CCC3)cc2)n1 [Example 30, 1-{4-[4-(3,5-dimethyl-isoxazol-4-yl)-6-morpholin-4-yl-pyrimidin-2-ylamino]-phenyl}-cyclobutanecarboxylic acid] | 1.64 | 1.74 |
| CC(C)(C)Nc1nc(Nc2ccc(C3(C(=O)O)CCC3)cc2)cc(-c2ccccc2)n1 [Example 55, 1-[4-(2-tert-butylamino-6-phenyl-pyrimidin-4-ylamino)-phenyl]-cyclobutane-carboxylic acid] | 2.86 | 2.40 |
| CC(C)Oc1cc(-c2ccccc2)nc(Nc2ccc(C3(C(=O)O)CCC3)cc2)n1 [Example 68, 1-[4-(4-isopropoxy-6-phenyl-pyrimidin-2-ylamino)-phenyl]-cyclobutane-carboxylic acid] | 2.57 | 2.44 |
